Experimental data taken from patent US7485651B2, “Compounds with activity on muscarinic receptors” (Acadia Pharmaceuticals, Inc., priority 1998, dated 2009).

What was measured:
[1] = molecular target: T1, m5 receptor (Homo sapiens, UniProt P08912); assay: R-SAT / NIH 3T3 cells transfected with m5 muscarinic receptor; type: cell-based; conditions: NIH3T3; m5; compound at 1.5 μM; maximum = response to 10 μM carbachol; read-out: Cellular response as a percentage of the maximum response of the cells
T1 construct: expressed in transfected cells; host or cells: NIH 3T3 (ATCC CRL 1658)
T1 sequence (P08912 1-532): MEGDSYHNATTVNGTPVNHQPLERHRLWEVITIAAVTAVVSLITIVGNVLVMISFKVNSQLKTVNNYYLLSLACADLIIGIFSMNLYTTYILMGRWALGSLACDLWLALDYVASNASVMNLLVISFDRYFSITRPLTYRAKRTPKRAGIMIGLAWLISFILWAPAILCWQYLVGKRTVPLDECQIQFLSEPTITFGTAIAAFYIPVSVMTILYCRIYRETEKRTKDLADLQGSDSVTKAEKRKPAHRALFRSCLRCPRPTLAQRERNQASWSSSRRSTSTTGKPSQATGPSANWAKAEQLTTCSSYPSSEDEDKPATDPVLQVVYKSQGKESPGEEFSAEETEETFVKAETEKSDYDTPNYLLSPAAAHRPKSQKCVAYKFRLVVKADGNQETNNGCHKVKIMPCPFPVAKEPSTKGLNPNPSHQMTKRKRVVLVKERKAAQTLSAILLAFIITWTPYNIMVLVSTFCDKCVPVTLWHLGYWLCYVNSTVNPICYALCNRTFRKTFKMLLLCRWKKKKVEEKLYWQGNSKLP
Source text: (§1) A particularly convenient functional assay system is the receptor selection and amplification assay disclosed in U.S. Pat. No. 5,707,798 describing a method of screening for bioactive compounds by utilizing the ability of cells transfected with receptor DNA, e.g. coding for the different muscarinic subtypes, to amplify in the presence of a ligand of the receptor. Cell amplification is detected as increased levels of a marker also expressed by the cells.
(§2) Transfection of cells with muscarinic receptor DNAs (general procedure) NIH 3T3 cells (available from the American Type Culture Collection as ATCC CRL 1658) were grown at 37° C. in a humidified atmosphere (5% CO2) incubator in Dulbecco's modified Eagle's medium (DMEM) supplemented with 4.5 g/l glucose, 4 mM glutamine, 50 units/m1 penicillin, 50 units/m1 streptomycin (available from Advanced Biotechnologies, Inc., Gaithersburg, Md.) and 10% calf serum (available from Sigma, St. Louis, […].). The cells were treated with trypsin-EDTA, spun down and plated at 2×10^6 per 15 cm dish in 20 m1 of DMEM containing 10% calf serum.
(§3) The m1-m5 muscarinic receptor subtypes were cloned substantially as described by Bonner et al., Science 237, 1987, p. 527, and Bonner et al., Neuron 1, 1988, p. 403. For the m2 and m4 receptors, the cells were co-transfected with DNA encoding a chimera between the Gq protein and the five carboxy-terminal amino acids of the Gi protein (the Gq-i5 construct is described by Conklin et al., Nature 363, 1993, p.274).
(§4) On day one, the cells were transfected using the Superfect transfection reagent (available from Qiagen, Valencia, Calif.) in accordance with the manufacturer's instructions. Receptor DNA, β-gal DNA (pSI-β-galactosidase available from Promega, Madison, Wis.), chimeric Gq-i5 DNA for the m2 and m4 receptor subtype assays, and salmon sperm DNA (available from Sigma, St. Louis, […].) as filler to a total of 20 μg DNA was added per plate. Prior to addition to the plates, 60 μl Superfect was added to the DNA and mixed thoroughly by pipetting up and down several times. The mixture was incubated at room temperature for 10-15 minutes. The media were aspirated, and 12 ml fresh DMEM containing 10% calf serum and 50 units/m1 penicillin/streptomycin was added to the plates. The DNA-Superfect solution was mixed once more with a pipette and added to the plate which was swirled to distribute the DNA mixture evenly over the surface. The cells were incubated overnight at 37° C. and 5% CO2. After incubation, the media were aspirated and the plates were rinsed once with a 15 m1 volume of Hank's Buffered Saline. The plates were swirled to ensure thorough rinsing. 20 m1 fresh DMEM supplemented with 10% calf serum and 50 units/m1 penicillin/streptomycin was added to the plates. The cells were incubated for 24-48 hours until the plates were 100% confluent.
(§5) Assay of NIH 3T3 cells transfected with muscarinic receptor subtypes (general procedure) DMEM containing 2% Cyto-SF3 was heated at 37° C. in a water bath under sterile conditions. Sterile working stock solutions of test compounds to be assayed were prepared by diluting the compounds in DMEM to 8× the final concentration for testing. The compound (carbachol) to be included in the assay as a positive control was also diluted in DMEM to 8× the final concentration. 50 μL of the DMEM containing 2% Cyto-SF3 was added to each well of 96-well microtiter plates under sterile conditions. Then, 16 of compound solutions were added to the top wells of the plates, and dilution of the solutions was performed by taking 16 μl of the compound solutions from the top wells and pipetting them into the next row of wells. This procedure was repeated with each subsequent row of wells, except that 50 μl medium alone was added to the baseline control wells (the wells that contain medium and cells, but not test compounds) and plate control wells (wells containing medium, but not test compounds and cells). […]

[2] = molecular target: T2, m1 receptor (Homo sapiens, UniProt P11229); assay: R-SAT / NIH 3T3 cells transfected with m1 muscarinic receptor; type: cell-based; conditions: NIH3T3; m1; compound at 1.5 μM; maximum = response to 10 μM carbachol; read-out: Cellular response as a percentage of the maximum response of the cells
T2 construct: expressed in transfected cells; host or cells: NIH 3T3 (ATCC CRL 1658)
T2 sequence (P11229 1-460): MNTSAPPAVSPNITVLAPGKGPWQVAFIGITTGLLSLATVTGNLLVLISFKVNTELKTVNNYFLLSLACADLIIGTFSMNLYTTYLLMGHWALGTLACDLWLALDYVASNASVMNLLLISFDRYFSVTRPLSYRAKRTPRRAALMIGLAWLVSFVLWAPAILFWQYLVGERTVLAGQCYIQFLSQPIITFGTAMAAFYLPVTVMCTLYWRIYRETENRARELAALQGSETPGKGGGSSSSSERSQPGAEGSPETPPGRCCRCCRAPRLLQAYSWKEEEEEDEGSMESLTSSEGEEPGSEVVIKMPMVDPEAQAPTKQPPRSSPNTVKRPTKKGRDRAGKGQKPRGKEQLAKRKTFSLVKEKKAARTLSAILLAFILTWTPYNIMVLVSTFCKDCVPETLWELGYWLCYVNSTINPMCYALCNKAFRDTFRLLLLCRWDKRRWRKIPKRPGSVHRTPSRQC
Description: Cell amplification is detected as increased levels of a marker also expressed by the cells.
The cells were treated with trypsin-EDTA, spun down and plated at 2×10^6 per 15 cm dish in 20 m1 of DMEM containing 10% calf serum.
as §4
Assay of NIH 3T3 cells transfected with muscarinic receptor subtypes (general procedure) DMEM containing 2% Cyto-SF3 was heated at 37° C. in a water bath under sterile conditions. Sterile working stock solutions of test compounds to be assayed were prepared by diluting the compounds in DMEM to 8× the final concentration for testing. The compound (carbachol) to be included in the assay as a positive control was also diluted in DMEM to 8× the final concentration. 50 μL of the DMEM containing 2% Cyto-SF3 was added to each well of 96-well microtiter plates under sterile conditions. Then, 16 of compound solutions were added to the top wells of the plates, and dilution of the solutions was performed by taking 16 μl of the compound solutions from the top wells and pipetting them into the next row of wells. This procedure was repeated with each subsequent row of wells, except that 50 μl medium alone was added to the baseline control wells (the wells that contain medium and cells, but not test compounds) and plate control wells (wells containing medium, but not test compounds and cells). The plates were then placed in an incubator at 37° C. to equilibrate temperature and pH.
When the cell cultures had reached 100% confluence, the medium was aspirated and each plate was rinsed with 15 m1 Hank's Buffered Saline (HBS). The cells were left in the incubator for about 10-15 minutes until the HBS had turned slightly yellow. The HBS was then aspirated and 1 m1 trypsin was added to each plate and swirled so as to completely cover the plates. The edges of the plates were gently rapped several times to loosen the cells. After the cells had been dislodged from the surface, 8 m1 DMEM containing 10% calf serum and 50 units/m1 penicillin and 50 units/m1 streptomycin was added to inhibit the trypsin. The plates were rinsed with this medium, and the cells were pipetted into a tube. The cells were centrifuged at 1000 rpm for 5-10 min. in an IEC Centra CL2 centrifuge (produced by Sorvall). Afterwards, the medium was carefully aspirated so as not to dislodge the cells. The cell pellet was suspended in 1600 μl DMEM containing 10% calf serum and 50 units/m1 penicillin and 50 units/m1 streptomycin, after which 20 m1 DMEM supplemented with 2% Cyto-SF3 was added. 50 μl aliquots of this cell suspension was added to the wells of the 96-well microtiter plates prepared above (except for the plate control wells).

[3] = molecular target: T3, m3 receptor (Homo sapiens, UniProt P20309); assay: R-SAT / NIH 3T3 cells transfected with m3 muscarinic receptor; type: cell-based; conditions: NIH3T3; m3; compound at 1.5 μM; maximum = response to 10 μM carbachol; read-out: Cellular response as a percentage of the maximum response of the cells
T3 construct: expressed in transfected cells; host or cells: NIH 3T3 (ATCC CRL 1658)
T3 sequence (P20309 whole entry): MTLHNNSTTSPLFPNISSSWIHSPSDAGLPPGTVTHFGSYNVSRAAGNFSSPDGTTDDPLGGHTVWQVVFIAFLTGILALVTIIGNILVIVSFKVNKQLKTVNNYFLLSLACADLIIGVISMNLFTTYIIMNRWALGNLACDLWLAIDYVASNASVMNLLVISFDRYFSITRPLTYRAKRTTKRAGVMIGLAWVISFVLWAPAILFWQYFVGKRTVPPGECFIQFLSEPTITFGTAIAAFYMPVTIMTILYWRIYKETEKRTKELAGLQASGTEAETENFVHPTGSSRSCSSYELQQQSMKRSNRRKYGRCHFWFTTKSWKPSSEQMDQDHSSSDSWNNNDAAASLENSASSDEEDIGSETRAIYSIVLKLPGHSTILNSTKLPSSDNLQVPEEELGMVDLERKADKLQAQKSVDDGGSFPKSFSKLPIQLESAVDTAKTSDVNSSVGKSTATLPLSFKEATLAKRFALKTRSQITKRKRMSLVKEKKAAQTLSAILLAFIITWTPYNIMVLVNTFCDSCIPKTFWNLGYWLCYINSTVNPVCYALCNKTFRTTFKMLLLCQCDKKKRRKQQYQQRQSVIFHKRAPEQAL
Source text: as §1, §2, §3, §4, §5

[4] = human, in vivo; cited from earlier work

Row | Compound | Emax at 1.5 µM [1] [%] | Emax at 1.5 µM [2] [%] | Emax at 1.5 µM [3] [%] | patients with elevated liver transaminases (hepatotoxicity) [4] | patients with gastrointestinal side effects [4]
1 | CCCCC1CCN(CCCC(=O)c2ccccc2OCC)CC1 [B, 4-n-Butyl-1-[4-(2ethoxyphenyl)-4-oxo-1-butyl]piperidine] | -6 | 76 | 7 |  | 
2 | CCCCC1CCN(CCCC(=O)c2ccccc2O)CC1 [C, 4-n-Butyl-1-[4-(2-hydroxyphenyl)-4-oxo-1-butyl]piperidine] | 0 | 91 | 4 |  | 
3 | Nc1c2c(nc3ccccc13)CCCC2 [Tacrine, 9-amino-1,2,3,4-tetrahydroacridine] |  |  |  | about 30% | about a third

The next lines start with results.

Row | Emax at 1.5 µM [1] [%] | Emax at 1.5 µM [2] [%] | Emax at 1.5 µM [3] [%] | Compound | patients with elevated liver transaminases (hepatotoxicity) [4] | patients with gastrointestinal side effects [4]
4 | 2 | 72 | 13 | CCCCC1CCN(CCCC(=O)c2cccc(C)c2C)CC1 [D, 4-n-Butyl-1-[4-(2,3-dimethylphenyl)-4-oxo-1-butyl]piperidine] |  | 
5 | -3 | 42 | 9 | CCCCC1CCN(CCCC(=O)c2ccc(C)cc2C)CC1 [E, 4-n-Butyl-1-[4-(2,4-dimethylphenyl)-4-oxo-1-butyl]piperidine] |  | 
6 | 5 | 65 | 9 | CCCCC1CCN(CCCC(=O)c2ccccc2OC)CC1 [F, 4-n-Butyl-1-[4-(2-methoxyphenyl)-4-oxo1-butyl]piperidine] |  | 
7 | 7 | 66 | 16 | CCCCC1CCN(CCCC(=O)c2ccccc2)CC1 [G, 4-n-Butyl-1-[4-phenyl-4-oxo-1-butyl]piperidine] |  | 
